Experimental data as given in patent US11725015B2, “Macrocyclic compound and uses thereof” (President and Fellows of Harvard College, priority 2017, dated 2023).

Experiments:
Type in all cases: in vivo
[1] = tested on: AN3CA (human endometrial cancer) xenograft; assay: Antitumor effects in AN3CA endometrial cancer xenograft model in mice as monotherapy; settings: 180 μg/kg intravenously on Day 1 and Day 8
Procedure: A human endometrial cancer cell line AN3CA, which had been cultured in an E-MEM containing 10% FBS, and penicillin-streptomycin, was adjusted to a concentration of 1.4×10^8 cells/mL with Hanks' Balanced Salt Solution to prepare a cell suspension, and the suspension was mixed with Geltrex® (Thermo Fisher Scientific Inc., #A1413202) in a ratio of 1:1 to prepare a cell suspension in a concentration of 7×10^7 cells/mL. The cell suspension was inoculated in a volume of 100 μL into a subcutaneous part of a right flank of nude mice, 6 weeks of ages (CAnN.Cg-Foxnlnu/CrlCrlj, female, Charles River Laboratories Japan Inc.). Twelve days after cell inoculation (Day 1), the shortest diameter and the longest diameter of a tumor in each mouse were measured by using an electronic digital caliper (Digimatic™ caliper, Mitutoyo Corporation), so as to calculate the volume of the tumor in accordance with the following calculation formulae: Tumor volume (mm^3)=Longest diameter (mm)×Shortest diameter (mm)×Shortest diameter (mm)/2 Relative tumor volume (RTV)=Tumor volume (day X)/Tumor volume (the first day)
On the basis of the volumes of tumors obtained on Day 1, the mice were grouped such that averages of the tumor volumes were substantially equal among the groups. The experiment was conducted on groups each consisting of five mice. […]

[2] = tested on: KPL-4 subcutaneous xenograft; assay: Antitumor activity in KPL-4 subcutaneous xenograft model in combination with trastuzumab in mice
Procedure: A human HER-2 positive breast cancer cell line KPL-4, which had been cultured in an RPMI-1640 medium containing 10% FBS, and penicillin and streptomycin, was adjusted to a concentration of 1×10^8 cells/mL with Hank's Balanced Salt Solution to prepare a cell suspension. The cell suspension was inoculated in a volume of 100 μL into a subcutaneous part of a right flank of nude mice, 7 weeks of ages (CAnN.Cg-Foxnlnu/CrlCrlj, female, Charles River Laboratories Japan, Inc.).
On the basis of the volumes of tumors obtained on the first day of administration, the mice were grouped such that averages of the tumor volumes were substantially equal among the groups. The experiment was conducted on groups each consisting of 6 mice. Each test compound was dissolved in DMSO and a solution was stored at the freezer before use. Immediately before the administration, the stock solution was diluted in saline.

[3] = tested on: HEC-108 (human endometrial cancer) xenograft; assay: Antitumor effects in HEC-108 endometrial cancer xenograft model in mice as monotherapy; settings: 180 μg/kg intravenously on Day 1 and Day 8
Procedure: A human endometrial cancer cell line HEC-108, which had been cultured in an E-MEM containing 15% FBS and antibiotics were adjusted to a concentration of 7.14×10^7 cells/mL with medium to prepare a cell suspension. The cell suspension was inoculated in a volume of 150 μL into a subcutaneous part of a right flank of athymic mice (CAnN.Cg-Foxnlnu/CrlCrlj, female, 6 weeks old, Charles River Japan Inc.). Thirteen days after cell inoculation (Day 1), the length and the width of a tumor in each mouse were measured by using an electronic digital caliper (Mitutoyo Corporation), so as to calculate the volume of the tumor in accordance with the following calculation formula: Tumor volume (mm^3)=Longest diameter (mm)×Shortest diameter (mm)×Shortest diameter (mm)/2 Relative tumor volume (RTV)=Tumor volume (day X)/Tumor volume (the first day)
On the basis of TV, the mice were randomly grouped (Day 1). Each group was consisted in six mice. Compound (1) was dissolved in DMSO and a solution was stored in the freezer before use. Compound (1) (180 μg/kg) was diluted in saline and intravenously injected on Day 1 and Day 8.

[4] = tested on: CT26 subcutaneous syngeneic model; assay: Antitumor activity in CT26 subcutaneous syngeneic model in combination with anti-mPD-1 antibody in mice
Procedure: A murine undifferentiated colon carcinoma cell line CT26, which had been cultured in an RPMI-1640 medium containing 10% FBS, and penicillin and streptomycin, was adjusted to a concentration of 2×10^7 cells/mL with Hank's Balanced Salt Solution to prepare a cell suspension. On day 1, the cell suspension was inoculated in a volume of 100 μL into a subcutaneous part of a right flank of BALB/c mice, 6 weeks of ages (BALB/cAnNCrlCrlj, female, Charles River Laboratories Japan, Inc.). Two days after the cell inoculation, the mice were randomly divided into four groups and each group consists of 8 mice. The shortest diameter and the longest diameter of a tumor in each mouse were measured by using an electronic digital caliper (Digimatic™ caliper, Mitutoyo Corporation), so as to calculate the volume of the tumor in accordance with the following calculation formula: Tumor volume (mm^3)=Longest diameter (mm)×Shortest diameter (mm)×Shortest diameter (mm)/2 T/C=(mean tumor volume of treated group)/(mean tumor volume of control group) Inhibition of tumor growth (%)=(1−T/C)×100
The test compound was intravenously administered at 0.09 mg/kg on days 3 and 11. Anti-mPD-1 antibody (BE0146, Bio X Cell) was intravenously administered at 10 mg/kg on days 3, 7, 11, and 15.

With C=C1C[C@@H]2CC[C@@]34C[C@H]5O[C@H]6[C@@H](O3)[C@H]3O[C@H](CC[C@@H]3O[C@H]6C5O4)CC(=O)O[C@@H]3[C@@H](C)[C@@H]4O[C@@H]5C[C@]6(C[C@@H]7O[C@]8(C[C@H](C)[C@@H]9O[C@H](CN)[C@H](O)C[C@@H]9O8)C[C@H](C)[C@@H]7O6)O[C@@H]5C[C@@H]4O[C@H]3C[C@H]3O[C@@H](CC[C@@H]1O2)C[C@@H](C)C3=C [Compound (1)] the antitumor activity [1] was “tumor regression”, the “Tumor Regression (%)” value ([2]; 0.09 mg/kg intravenously + trastuzumab 10 mg/kg) was 83% and the “Tumor Regression (%)” value ([2]; 0.09 mg/kg intravenously, without trastuzumab) was 43%. The “Tumor Regression (%)” value ([2]; 0.18 mg/kg intravenously + trastuzumab 10 mg/kg) was 100%, the “Tumor Regression (%)” value ([2]; 0.18 mg/kg intravenously, without trastuzumab) was 87% and the antitumor activity [3] was “tumor growth delay”. For the same compound, the “Inhibition of tumor growth on day 15 (%)” value ([4]; 0.09 mg/kg intravenously + anti-mPD-1 antibody 10 mg/kg) was 62% and the “Inhibition of tumor growth on day 15 (%)” value ([4]; 0.09 mg/kg intravenously on days 3 and 11, without antibody) was 30%.
